Here are results for ten compounds from patent US12570612B2, “Substituted nitrogen heterocyclic compound and anesthetic effect thereof” (priority 2019, dated 2026).

Molecules are shown by their SMILES. pEC50: −log10 of the molar value.

The first data set concerns H295R cell line. The data set can be described thus: Adrenocortical function in vitro test: secretion of cortisol and corticosterone, Group A compounds. Format: cell-based. The conditions noted are these: H295 cells.
As for `C[C@H](c1ccccc1)n1cncc1C(=O)O` [Etomidate acid, etomidate acid, reference compound], the “Corticosterone as an indicator to determine the presence of inhibition” value (“Corticosterone as an indicator … of inhibition” for short) is 0 and the “Cortisol as an indicator to determine the presence of inhibition” value (shortened to “Cortisol as an indicator … of inhibition”) was determined as 0.

Still in this data set, the particulars now being: H295 cells, 0.1-10000 nM, HPLC-MS/MS; read-out: EC50 (Corticosterone).
The term pEC50 denotes the EC50 on a negative log10 scale, so that one unit is a factor of ten. `C[C@H](c1ccccc1)n1cncc1C(=O)O` [Etomidate acid, etomidate acid, reference compound]: the pEC50 is under 5.00.

The data set is the same for the next values; noted with them: H295 cells, 0.1-10000 nM, HPLC-MS/MS; read-out: EC50 (Cortisol).
Take `C[C@H](c1ccccc1)n1cncc1C(=O)O` [Etomidate acid, etomidate acid, reference compound]: the pEC50 is under 5.00.

For the next data set, the system named is Sprague-Dawley rats. The data set can be described thus: animal or person. The note with it: LORR in rats, tail vein; brackets = 95% confidence limit. The procedure: Adult male Sprague-Dawley rats (250-300 g) were selected for the experiment. […] The anesthesia effects of the compounds were assessed in rats using a LORR assay and a period >30 s was considered as an indicator of general anesthesia.
By ED50 is commonly meant the dose that gives a 50% effect, or the effect in half of the subjects. With `C[C@H](c1ccccc1)n1nnc(Br)c1C(=O)OC1CCC1` [Compound B104], the ED50 result was “C (C indicates that the measured ED50 is in the range of 1.00-2.00 mg/kg (excluding 1.00 mg/kg, including 2.00 mg/kg))”.
Regarding `C=C=CC1(OC(=O)c2cnnn2[C@H](C)c2ccccc2)CCCCC1` [Compound B11], the 50% effective dose (ED50) result is “B (B indicates that the measured ED50 is in the range of 0.50-1.00 mg/kg (excluding 0.50 mg/kg, including 1.00 mg/kg))”.
With `C[C@H](c1ccccc1)n1nnc(Br)c1C(=O)OC(C)(C)C` [Compound B110], the 50% effective dose (ED50) result is on record as “D (D indicates that the measured ED50 is in the range of 2.00-10.00 mg/kg (excluding 2.00 mg/kg, including 10.00 mg/kg))”.
Regarding `CCOC(=O)c1cnnn1[C@H](C)c1ccccc1` [Compound B1], the ED50 result is “A (A indicates that the measured ED50 is in the range of 0.04-0.50 mg/kg (including 0.04 and 0.50 mg/kg))”.
With `C=CCOC(=O)c1c(Br)nnn1[C@H](C)c1ccccc1` [Compound B108], the ED50 entry is listed as “B (B indicates that the measured ED50 is in the range of 0.50-1.00 mg/kg (excluding 0.50 mg/kg, including 1.00 mg/kg))”.

Still in this data set, the particulars now being: Rattus norvegicus, LORR in rats, tail vein; brackets = 95% confidence limit.
In turn, `COC(=O)C1=C(OC(=O)c2cnnn2[C@H](C)c2ccccc2)CCCC1` [Compound B30] showed a 50% effective dose (ED50) of 0.5 to 1 mg/kg.
`CCOC(=O)c1c(I)nnn1[C@H](C)c1ccccc1` [Compound B127] showed an ED50 of 0.5 to 1 mg/kg.
The compound `C[C@H](c1ccccc1)n1nnc(I)c1C(=O)OC1(C)COC1` [Compound B140] returned a median effective dose (ED50) of 10 to 20 mg/kg.
Turning to `CCOC(=O)c1c(C(F)(F)F)nnn1[C@H](C)c1ccccc1` [Compound B145], the median effective dose (ED50) lay in the range of 2 to 10 mg/kg.

Staying with this data set, now noted: rats.
On to `C[C@H](c1ccccc1)n1nnc(Br)c1C(=O)OC1CCC1` [Compound B104], for which the Approximate therapeutic index is over 10 and the Minimal lethal dose is reported as over 11 mg/kg.
In turn, `C=C=CC1(OC(=O)c2cnnn2[C@H](C)c2ccccc2)CCCCC1` [Compound B11] returned an Approximate therapeutic index of over 8 and a Minimal lethal dose of over 6 mg/kg.
`C[C@H](c1ccccc1)n1nnc(Br)c1C(=O)OC(C)(C)C` [Compound B110]: the Approximate therapeutic index is listed as over 7 and the Minimal lethal dose is recorded as over 16 mg/kg.
The compound `CCOC(=O)c1cnnn1[C@H](C)c1ccccc1` [Compound B1] displayed an Approximate therapeutic index of over 20 and a Minimal lethal dose of over 8 mg/kg.
`COC(=O)C1=C(OC(=O)c2cnnn2[C@H](C)c2ccccc2)CCCC1` [Compound B30]: the Approximate therapeutic index is given as over 10 and the Minimal lethal dose is recorded as over 10 mg/kg.
For the compound `CCOC(=O)c1c(I)nnn1[C@H](C)c1ccccc1` [Compound B127], the Approximate therapeutic index is on record as over 23 and the Minimal lethal dose was over 16 mg/kg.
The compound `C[C@H](c1ccccc1)n1nnc(I)c1C(=O)OC1(C)COC1` [Compound B140] registered an Approximate therapeutic index of over 2 and a Minimal lethal dose of over 30 mg/kg.
For the compound `CCOC(=O)c1c(C(F)(F)F)nnn1[C@H](C)c1ccccc1` [Compound B145], the Approximate therapeutic index is on record as over 4 and the Minimal lethal dose is listed as over 18 mg/kg.
On to `C=CCOC(=O)c1c(Br)nnn1[C@H](C)c1ccccc1` [Compound B108], for which the Approximate therapeutic index is listed as over 20 and the Minimal lethal dose is over 14 mg/kg.

A further data set relates to H295R cell line. The data set can be described thus: Adrenocortical function in vitro test: secretion of cortisol and corticosterone, Group B compounds. Format: cell-based. The note with it: H295R cells.
As for `C[C@H](c1ccccc1)n1nnc(Br)c1C(=O)OC1CCC1` [Compound B104], the “Corticosterone as an indicator … of inhibition” value is reported as 0 and the “Cortisol as an indicator … of inhibition” value is 0.
Consider `C=C=CC1(OC(=O)c2cnnn2[C@H](C)c2ccccc2)CCCCC1` [Compound B11], for which the “Corticosterone as an indicator … of inhibition” value was 0 and the “Cortisol as an indicator … of inhibition” value is on record as 0.
For the compound `C[C@H](c1ccccc1)n1nnc(Br)c1C(=O)OC(C)(C)C` [Compound B110], the “Corticosterone as an indicator … of inhibition” value was determined as 0 and the “Cortisol as an indicator … of inhibition” value worked out at 0.
For the compound `CCOC(=O)c1cnnn1[C@H](C)c1ccccc1` [Compound B1], the “Corticosterone as an indicator … of inhibition” value was 0 and the “Cortisol as an indicator … of inhibition” value is listed as 0.
`C[C@H](c1ccccc1)n1cncc1C(=O)O` [Etomidate acid, etomidate acid, reference compound]: the “Corticosterone as an indicator … of inhibition” value came to 0 and the “Cortisol as an indicator … of inhibition” value stood at 0.
On to `COC(=O)C1=C(OC(=O)c2cnnn2[C@H](C)c2ccccc2)CCCC1` [Compound B30], for which the “Corticosterone as an indicator … of inhibition” value is recorded as 0 and the “Cortisol as an indicator … of inhibition” value is 0.
With `CCOC(=O)c1c(I)nnn1[C@H](C)c1ccccc1` [Compound B127], the “Corticosterone as an indicator … of inhibition” value came to 0 and the “Cortisol as an indicator … of inhibition” value stood at 0.
As to `C[C@H](c1ccccc1)n1nnc(I)c1C(=O)OC1(C)COC1` [Compound B140], the “Corticosterone as an indicator … of inhibition” value is listed as 0 and the “Cortisol as an indicator … of inhibition” value stood at 0.
For `CCOC(=O)c1c(C(F)(F)F)nnn1[C@H](C)c1ccccc1` [Compound B145], the “Corticosterone as an indicator … of inhibition” value was determined as 0 and the “Cortisol as an indicator … of inhibition” value is recorded as 0.
Regarding `C=CCOC(=O)c1c(Br)nnn1[C@H](C)c1ccccc1` [Compound B108], the “Corticosterone as an indicator … of inhibition” value was determined as 0 and the “Cortisol as an indicator … of inhibition” value is 0.

The data set is the same for the next values; noted with them: H295R cells, 0.1-10000 nM, HPLC-MS/MS; read-out: EC50 (Corticosterone).
Turning to `C[C@H](c1ccccc1)n1nnc(Br)c1C(=O)OC1CCC1` [Compound B104], the negative logarithm of the EC50 (pEC50) was under 5.52.
With `C=C=CC1(OC(=O)c2cnnn2[C@H](C)c2ccccc2)CCCCC1` [Compound B11], the negative logarithm of the EC50 (pEC50) was under 6.00.
Turning to `C[C@H](c1ccccc1)n1nnc(Br)c1C(=O)OC(C)(C)C` [Compound B110], the pEC50 was under 5.52.
`CCOC(=O)c1cnnn1[C@H](C)c1ccccc1` [Compound B1]: the pEC50 was under 7.00.
`C[C@H](c1ccccc1)n1cncc1C(=O)O` [Etomidate acid, etomidate acid, reference compound]: the pEC50 is under 5.00.
Regarding `C=CCOC(=O)c1c(Br)nnn1[C@H](C)c1ccccc1` [Compound B108], the pEC50 was under 5.52.

Staying with this data set, now noted: H295R cells, 0.1-10000 nM, HPLC-MS/MS; read-out: EC50 (Cortisol).
For the compound `C[C@H](c1ccccc1)n1nnc(Br)c1C(=O)OC1CCC1` [Compound B104], the negative logarithm of the EC50 (pEC50) was under 5.52.
In the case of `C=C=CC1(OC(=O)c2cnnn2[C@H](C)c2ccccc2)CCCCC1` [Compound B11], the negative logarithm of the EC50 (pEC50) was under 6.00.
On to `C[C@H](c1ccccc1)n1nnc(Br)c1C(=O)OC(C)(C)C` [Compound B110], for which the pEC50 was under 5.52.
Take `CCOC(=O)c1cnnn1[C@H](C)c1ccccc1` [Compound B1]: the pEC50 was under 7.30.
Consider `C[C@H](c1ccccc1)n1cncc1C(=O)O` [Etomidate acid, etomidate acid, reference compound], for which the negative logarithm of the EC50 (pEC50) was under 5.00.
Consider `C=CCOC(=O)c1c(Br)nnn1[C@H](C)c1ccccc1` [Compound B108], for which the pEC50 is under 5.52.

The data set is the same for the next values; noted with them: Homo sapiens, NCI-H295R, H295R cells, 0.1-10000 nM, HPLC-MS/MS; read-out: EC50 (Corticosterone).
Take `COC(=O)C1=C(OC(=O)c2cnnn2[C@H](C)c2ccccc2)CCCC1` [Compound B30]: the pEC50 was under 6.00.
Regarding `CCOC(=O)c1c(I)nnn1[C@H](C)c1ccccc1` [Compound B127], the pEC50 is under 5.52.
Same read-out and setting: for `C[C@H](c1ccccc1)n1nnc(I)c1C(=O)OC1(C)COC1` [Compound B140] the value was under 6.00; for `CCOC(=O)c1c(C(F)(F)F)nnn1[C@H](C)c1ccccc1` [Compound B145], under 5.52.

Still in this data set, the particulars now being: Homo sapiens, NCI-H295R, H295R cells, 0.1-10000 nM, HPLC-MS/MS; read-out: EC50 (Cortisol).
Take `COC(=O)C1=C(OC(=O)c2cnnn2[C@H](C)c2ccccc2)CCCC1` [Compound B30]: the pEC50 was under 6.00.
Turning to `CCOC(=O)c1c(I)nnn1[C@H](C)c1ccccc1` [Compound B127], the negative-log EC50 (pEC50) is under 5.52.
On to `C[C@H](c1ccccc1)n1nnc(I)c1C(=O)OC1(C)COC1` [Compound B140], for which the negative logarithm of the EC50 (pEC50) is under 6.00.
For `CCOC(=O)c1c(C(F)(F)F)nnn1[C@H](C)c1ccccc1` [Compound B145], the pEC50 is under 5.52.
